Results on 22 compounds are retold here after patent US12264134B2 (Merck Sharp & Dohme LLC, priority 2018, dated 2025).

Counter-ions that a name gives are not always drawn.

Experiment [1] addresses T1, IDO1 (Homo sapiens, UniProt P14902). The experiment can be described thus: IDO1 Cellular Assay in HeLa Cells Stimulated with IFNγ. It counts as cell-based. As to conditions: read-out: HeLa Cell Potency, IC50.
Experiment [2] deals with T1, IDO1. The experiment can be described thus: IDO1 Human Whole blood Assay. As to conditions: LPS and IFNγ stimulated, 18 h, read-out: Human Whole Blood Potency, IC50. More on the design: Human whole blood was drawn in sodium heparin coated tubes from healthy internal donors; from tissue; host or cells: human whole blood from healthy donors, stimulated with LPS and IFNγ. It counts as cell-based. Put shortly: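 LC/MS/MS of kynurenine, normalized to spiked isotope-labeled standard (3 μM final), served as the readout. Beforehand, fresh human blood with compound (15 min preincubation) was stimulated overnight (18 h, 37 °C) with 100 ng/mL LPS/IFNγ. IC50 was obtained by four-parameter curve fitting.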

T1 sequence (P14902 whole entry): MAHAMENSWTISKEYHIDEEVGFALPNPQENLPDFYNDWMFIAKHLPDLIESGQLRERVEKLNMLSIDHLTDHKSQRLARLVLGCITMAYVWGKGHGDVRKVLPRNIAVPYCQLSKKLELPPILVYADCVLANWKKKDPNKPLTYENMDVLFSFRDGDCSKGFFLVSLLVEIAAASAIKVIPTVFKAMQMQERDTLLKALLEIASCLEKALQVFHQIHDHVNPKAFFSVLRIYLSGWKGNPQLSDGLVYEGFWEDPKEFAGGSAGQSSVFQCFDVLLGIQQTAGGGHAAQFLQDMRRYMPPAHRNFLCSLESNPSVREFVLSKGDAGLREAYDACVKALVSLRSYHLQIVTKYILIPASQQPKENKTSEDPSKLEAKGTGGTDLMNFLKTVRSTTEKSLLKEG

`Cc1cccc(N2CCN(C(=O)Cn3nc(C(=O)N4CCN(CC(F)F)CC4)c4c3CCC4)CC2)c1C` [Example 157, 2-{3-[4-(2,2-difluoroethyl)piperazine-1-carbonyl]-5,6-dihydrocyclopenta[c]pyrazol-1(4H)-yl}-1-[4-(2,3-dimethylphenyl)piperazin-1-yl]ethan-1-one]: the IC50 at IDO1 [1] turned out to be 3.34 nM; at IDO1 [2], 196 nM.
On the same counts, the results for `Cc1cccc(N2CCN(C(=O)Cn3nc(C(=O)N4CCN(CC(F)(F)F)CC4)c4c3CCC4)CC2)c1C` [Example 158, 1-[4-(2,3-dimethylphenyl)piperazin-1-yl]-2-{3-[4-(2,2,2-trifluoroethyl)piperazine-1-carbonyl]-5,6-dihydrocyclopenta[c]pyrazol-1(4H)-yl}ethan-1-one] are 3.06 nM and 375 nM.
For `Cc1cccc(N2CCN(C(=O)Cn3nc(C(=O)N4CCC(CCO)CC4)c4c3CCC4)CC2)c1C` [Example 160, 1-[4-(2,3-dimethylphenyl)piperazin-1-yl]-2-{3-[4-(2-hydroxyethyl)piperidine-1-carbonyl]-5,6-dihydrocyclopenta[c]pyrazol-1(4H)-yl}ethan-1-one] the same measures were 1.65 nM and 209 nM.
For `Cc1cccc(N2CCN(C(=O)Cn3nc(C(=O)N4CCC(C)(CO)CC4)c4c3CCC4)CC2)c1C` [Example 161, 1-[4-(2,3-dimethylphenyl)piperazin-1-yl]-2-{3-[4-(hydroxymethyl)-4-methylpiperidine-1-carbonyl]-5,6-dihydrocyclopenta[c]pyrazol-1(4H)-yl}ethan-1-one] the same measures were 2.42 nM and 113 nM.
As to `Cc1cccc(N2CCN(C(=O)Cn3nc(C(=O)N4CCN(CC(N)=O)CC4)c4c3CCC4)CC2)c1C` [Example 165, 2-[4-(1-{2-[4-(2,3-dimethylphenyl)piperazin-1-yl]-2-oxoethyl}-1,4,5,6-tetrahydrocyclopenta[c]pyrazole-3-carbonyl)piperazin-1-yl]acetamide], the IC50 came to 8.85 nM on IDO1 [1] and 79 nM on IDO1 [2].
On the same counts, the results for `Cc1cccc(N2CCN(C(=O)Cn3nc(C(=O)N4CCN(C)[C@H](C)C4)c4c3CCC4)CC2)c1C` [Example 167, 1-[4-(2,3-dimethylphenyl)piperazin-1-yl]-2-{3-[(3R)-3,4-dimethylpiperazine-1-carbonyl]-5,6-dihydrocyclopenta[c]pyrazol-1(4H)-yl}ethan-1-one] are 7.88 nM and 189 nM.
On the same counts, the results for `Cc1cccc(N2CCN(C(=O)Cn3nc(C(=O)N4CCN(C5COC5)CC4)c4c3CCC4)CC2)c1C` [Example 168, 1-[4-(2,3-dimethylphenyl)piperazin-1-yl]-2-{3-[4-(oxetan-3-yl)piperazine-1-carbonyl]-5,6-dihydrocyclopenta[c]pyrazol-1(4H)-yl}ethan-1-one] are 5.88 nM and 441 nM.
Consider `COCCN1[C@H](C)CN(C(=O)c2nn(CC(=O)N3CCN(c4cccc(C)c4C)CC3)c3c2CCC3)C[C@@H]1C` [Example 172, 1-[4-(2,3-dimethylphenyl)piperazin-1-yl]-2-{3-[(3R,5S)-4-(2-methoxyethyl)-3,5-dimethylpiperazine-1-carbonyl]-5,6-dihydrocyclopenta[c]pyrazol-1(4H)-yl}ethan-1-one], for which the IC50 stood at 6.12 nM at IDO1 [1] and 1240 nM on IDO1 [2].
For `Cc1cccc(N2CCN(C(=O)Cn3nc(C(=O)N4CCN5CCOC[C@H]5C4)c4c3CCC4)CC2)c1C` [Example 173, 1-[4-(2,3-dimethylphenyl)piperazin-1-yl]-2-{3-[(9aR)-hexahydropyrazino[2,1-c][1,4]oxazine-8(1H)-carbonyl]-5,6-dihydrocyclopenta[c]pyrazol-1(4H)-yl}ethan-1-one], the IC50 came out at 7.66 nM on IDO1 [1] and 1670 nM on IDO1 [2].
For `Cc1cccc(N2CCN(C(=O)Cn3nc(C(=O)N4CCN5CCOC[C@@H]5C4)c4c3CCC4)CC2)c1C` [Example 174, 1-[4-(2,3-dimethylphenyl)piperazin-1-yl]-2-{3-[(9aS)-hexahydropyrazino[2,1-c][1,4]oxazine-8(1H)-carbonyl]-5,6-dihydrocyclopenta[c]pyrazol-1(4H)-yl}ethan-1-one] the same measures were 3.75 nM and 480 nM.
On the same counts, the results for `Cc1cccc(N2CCN(C(=O)Cn3nc(C(=O)N4CCC5(CC4)COCC5O)c4c3CCC4)CC2)c1C` (centres unmarked) [Example 181, 1-[4-(2,3-dimethylphenyl)piperazin-1-yl]-2-[3-(4-hydroxy-2-oxo-8-azaspiro[4.5]decane-8-carbonyl)-5,6-dihydrocyclopenta[c]pyrazol-1(4H)-yl]ethan-1-one] are 3.3 nM and 125 nM.
For `Cc1cccc(N2CCN(C(=O)Cn3nc(C(=O)N4CCC(O)(C(F)F)CC4)c4c3CCC4)CC2)c1C` [Example 192, 2-{3-[4-(difluoromethyl)-4-hydroxypiperidine-1-carbonyl]-5,6-dihydrocyclopenta[c]pyrazol-1(4H)-yl}-1-[4-(2,3-dimethylphenyl)piperazin-1-yl]ethan-1-one] the same measures were 1.64 nM and 196 nM.
Regarding `Cc1cccc(N2CCN(C(=O)Cn3nc(C(=O)N4CC[C@H](N)[C@@H](F)C4)c4c3CCC4)CC2)c1C` [Example 203, [(3S,4S)-1-[1-[2-[4-(2,3-dimethylphenyl)piperazin-1-yl]-2-oxo-ethyl]-5,6-dihydro-4H-cyclopenta[c]pyrazole-3-carbonyl]-3-fluoro-4-piperidyl]ammonium; formate], the IC50 was determined as 13 nM at IDO1 [1] and 278 nM at IDO1 [2].
For `CC(=O)NC1CCN(C(=O)c2nn(CC(=O)N3CCN(c4cccc(C)c4C)CC3)c3c2[C@@H]2C[C@@H]2C3)CC1` [Example 229, N-{1-[(3bR,4aR)-1-{2-[4-(2,3-dimethylphenyl)piperazin-1-yl]-2-oxoethyl}-3b,4,4a,5-tetrahydro-1H-cyclopropa[3,4]cyclopenta[1,2-c]pyrazole-3-carbonyl]piperidin-4-yl}acetamide] the same measures were 1.06 nM and 224 nM.
On the same counts, the results for `Cc1cccc(N2CCN(C(=O)Cn3nc(C(=O)N4CC[C@@H](C(C)(C)O)C4)c4c3C[C@H]3C[C@@H]43)CC2)c1C` [Example 230, 1-[4-(2,3-dimethylphenyl)piperazin-1-yl]-2-{(3bR,4aR)-3-[(3R)-3-(2-hydroxypropan-2-yl)pyrrolidine-1-carbonyl]-3b,4,4a,5-tetrahydro-1H-cyclopropa[3,4]cyclopenta[1,2-c]pyrazol-1-yl}ethan-1-one] are 1.13 nM and 801 nM.
Regarding `Cc1cccc(N2CCN(C(=O)Cn3nc(C(=O)N4C[C@@H](C)N[C@@H](C)C4)c4c3C[C@H]3C[C@@H]43)CC2)c1C` [Example 234, 1-[4-(2,3-dimethylphenyl)piperazin-1-yl]-2-{(3bR,4aR)-3-[(3R,5S)-3,5-dimethylpiperazine-1-carbonyl]-3b,4,4a,5-tetrahydro-1H-cyclopropa[3,4]cyclopenta[1,2-c]pyrazol-1-yl}ethan-1-one], the figures for the IC50 at IDO1 [1] and at IDO1 [2] were 3.61 nM and 273 nM, respectively.
For `Cc1cccc(N2CCN(C(=O)Cn3nc(C(=O)N4C[C@@H](C)N(C)[C@@H](C)C4)c4c3C[C@H]3C[C@@H]43)CC2)c1C` [Example 235, 1-[4-(2,3-dimethylphenyl)piperazin-1-yl]-2-{(3bR,4aR)-3-[(3R,5S)-3,4,5-trimethylpiperazine-1-carbonyl]-3b,4,4a,5-tetrahydro-1H-cyclopropa[3,4]cyclopenta[1,2-c]pyrazol-1-yl}ethan-1-one] the same measures were 3.1 nM and 339 nM.
For `Cc1cccc(N2CCN(C(=O)Cn3nc(C(=O)N4CCC(O)(CN)CC4)c4c3C[C@H]3C[C@@H]43)CC2)c1C` [Example 238, 2-{(3bR,4aR)-3-[4-(aminomethyl)-4-hydroxypiperidine-1-carbonyl]-3b,4,4a,5-tetrahydro-1H-cyclopropa[3,4]cyclopenta[1,2-c]pyrazol-1-yl}-1-[4-(2,3-dimethylphenyl)piperazin-1-yl]ethan-1-one] the same measures were 8.43 nM and 5050 nM.
On the same counts, the results for `Cc1cccc(N2CCN(C(=O)Cn3nc(C(=O)N4CCN(CCO)CC4)c4c3C[C@H]3C[C@@H]43)CC2)c1C` [Example 247] are 0.91 nM and 91 nM.
Consider `Cc1cccc(N2CCN(C(=O)Cn3nc(C(=O)N4CCC(O)(CF)CC4)c4c3C[C@H]3C[C@@H]43)CC2)c1C` [Example 276, 1-[4-(2,3-dimethylphenyl)piperazin-1-yl]-2-{(3bR,4aR)-3-[4-(fluoromethyl)-4-hydroxypiperidine-1-carbonyl]-3b,4,4a,5-tetrahydro-1H-cyclopropa[3,4]cyclopenta[1,2-c]pyrazol-1-yl}ethan-1-one], for which the IC50 amounted to 2.03 nM on IDO1 [1] and 109 nM on IDO1 [2].
For `Cc1cccc(N2CCN(C(=O)Cn3nc(C(=O)N4CC[C@@H](O)[C@H](F)C4)c4c3C[C@H]3C[C@@H]43)CC2)c1C` [Example 279, 1-[4-(2,3-dimethylphenyl)piperazin-1-yl]-2-{(3bR,4aR)-3-[(3R,4R)-3-fluoro-4-hydroxypiperidine-1-carbonyl]-3b,4,4a,5-tetrahydro-1H-cyclopropa[3,4]cyclopenta[1,2-c]pyrazol-1-yl}ethan-1-one] the same measures were 0.59 nM and 70 nM.
Take `Cc1cccc(N2CCN(C(=O)Cn3nc(C(=O)N4CC[C@H](O)[C@H](C)C4)c4c3C[C@H]3C[C@@H]43)CC2)c1C` [Example 280, 1-[4-(2,3-dimethylphenyl)piperazin-1-yl]-2-{(3bR,4aR)-3-[(3R,4S)-4-hydroxy-3-methylpiperidine-1-carbonyl]-3b,4,4a,5-tetrahydro-1H-cyclopropa[3,4]cyclopenta[1,2-c]pyrazol-1-yl}ethan-1-one]: the concentration for half-maximal inhibition (IC50) at IDO1 [1] is 0.79 nM; at IDO1 [2], 127 nM.
